Entries after “also recorded” stand apart in the source; their conditions may differ.

Test [1] relates to D54-MG glioma cells. Nature of the test: glutathione levels in tumor sections (monochlorobimane fluorescence). The note with it: 8 mg 2 times per day, 44 days after tumor induction. The class given is in vivo, CB-17 scid mice. As to the method:
(§1) The control group and treatment group animals were those described in FIG. 7A above. For these experiments, four mice (two control and two treatment) were sacrificed at 44 days after tumor induction, and brains were rapidly frozen and cryosectioned to […], thawed on ice, and then incubated with 100 μM monochlorobimane for 10 min. Fluorescence intensities were examined using a quantitative fluorescence imaging system comparing side-by-side slices from control group and treatment group animals. In these experiments, 10 slices were examined per animal. […] After treatment with 8 mg sulfasalazine 2 times per day, glutathione levels decreased approximately 30% (from 100+/−5.6 to 71.7+/−7.5 fluorescence units; p 0.01; t test) in tumors as compared with control animals (receiving saline alone). In parallel studies, the same assay was used on cultured glioma cells to validate these readouts. A 30% decrease in glutathione levels correlates with the glutathione depletion achieved with 70 μM sulfasalazine administered for 24 h to cultured cells; the maximal decrease achieved with 250 μM sulfasalazine in cultured U87-MG cells was 68% (data not shown).

Test [2] relates to cultured glioma cells. Nature of the test: glutathione levels in cultured glioma cells (monochlorobimane assay). It is filed as cell-based, human. On the procedure:
as §1

For test [3], the system named is D-54MG glioma cells. Nature of the test: BrdU incorporation, immunocytochemical studies. It is filed as cell-based, human. Particulars: DAPI co-staining (FIG. 4B). On the procedure:
BrdU incorporation was measured using an ELISA-based assay. D-54MG cells were grown in the presence or absence of inhibitors for 24 hours and pulsed for 2 hours with BrdU. The cells were cultured for an additional 48 hours and the amount of incorporated BrdU was measured using alkaline phosphatase conjugated to anti-BrdU antibodies. […] The inhibition of DNA synthesis was also seen in immunocytochemical studies.

Test [4] has as its system cortical astrocytes. Nature of the test: 35S-labeled cystine uptake in cortical astrocytes. Also noted: dose or concentration left out as unconfirmed. It is filed as cell-based. Particulars: compared with D-54MG glioma cells (FIG. 2B). An excerpt: System Xc is a glutamate-cystine exchanger and can therefore be inhibited if the outward directed gradient for glutamate is eliminated by exposure to high concentrations of extracellular glutamate. The principal hypothesis in this study is that system Xc serves as a pipeline for cellular cystine uptake, with glutamate release being an obligatory by-product. Cystine uptake is the rate-limiting step for the synthesis of GSH, which is the main intracellular antioxidant that protects cells from oxidative stress and resulting reactive oxygen species (ROS) (Jefferies et al., 2003).

Test [5] deals with cortical neuronal cultures. In words: survival of cortical neuronal cultures. The note with it: (S)-4-CPG 0.25 mM and 0.5 mM (FIG. 3C); sulfasalazine data not shown. The class given is cell-based.
For test [6], the system named is cortical astrocytes. In words: intracellular glutathione in cortical astrocytes. The note with it: sulfasalazine 50-500 μM; compared to glioma cells (FIG. 2E). It is filed as cell-based. As to the method: To determine if limiting cystine uptake via system Xc reduces the total intracellular glutathione content (GSH and glutathione disulfide), intracellular glutathione concentrations were determined in the presence and absence of sulfasalazine.

The test system of test [7] is U87-MG. Nature of the test: intracranial U87-MG luciferase xenograft, bioluminescence imaging. The class given is in vivo, CB-17 nude mice. The note with it: 8 mg twice daily for 3 weeks, then 1 dose per day (FIG. 7B). On the procedure: These U87-MG cells were similarly implanted intracranially as described above, but this time into CB-17 nude mice. After 7 days, animals were randomized into […]. The control group received an intraperitoneal injection of 1 ml dose of saline twice daily. The two test groups received an 8 mg dose of sulfasalazine (in 1 ml saline) twice daily for 3 weeks, followed by 1 dose per day of 8 mg sulfasalazine thereafter. Animals were imaged for tumor size, typically once per week, using a bioluminescence imaging system (IVIS system; Xenogen). Light emission from the tumor regions (in relative photons/second) were quantified using Living Image, version 2.20.1, software provided by Xenogen and plotted as a function of time.

Test [8] relates to glioma cells. Nature of the test: cell cycle: total DNA content by flow cytometry (propidium iodide). It is filed as cell-based, human. Particulars: 0.5 mM (FIG. 4D). On the procedure:
To test whether inhibition of cystine uptake affects a specific stage of the cell cycle, changes in total DNA content were measured using flow cytometry following treatment with 0.5 mM (S)-4-CPG and 0.5 mM sulfasalazine. Cells were fixed with para-formaldehyde and stained with the nuclear marker propidium iodide after incubation with drugs.
For orientation: A flow cytometer gives signals particle by particle.

In test [9] the test system is glioma cells. In words: cell death by flow cytometry using the Live/Dead assay kit. It is filed as cell-based, human. Particulars: 1 mM, 5 d incubation (FIG. 5E). On the procedure: (§2) Because an accumulation of ROS can lead to apoptotic cell death, the ability of system Xc inhibitors to induce apoptosis in glioma cells was examined. […] Often apoptosis is dependent on caspase activities, so it was determined whether the system Xc inhibitors induce activated caspase-3, which is the convergent enzyme in the caspase-dependent signaling cascade. […] With 1 mM sulfasalazine, 90% of cells died over the 5 d incubation (FIG. 5E).

In test [10] the test system is caspase-3. Nature of the test: activated caspase-3 by Western blot analysis. The class given is cell-based, human. Particulars: 0.5 mM; D-54MG cells (FIG. 5C). As to the method:
as §2
In general terms: Immunoblotting shows a protein as a band on a membrane.

Test [11] concerns glioma xenograft tumors. Nature of the test: tumor size by hematoxylin-eosin staining of brain sections. It is filed as in vivo, mice. Particulars: 8 mg in 1 ml saline twice per day; 30 days after tumor induction (FIGS. 7C, 7D). As to the method: To validate that these experiments represent, at least qualitatively, changes in tumor size, two animals each from the control and treatment groups were sacrificed at 30 days after tumor induction. Histological sections were obtained and traditional hematoxylin-eosin (H&E) staining were performed. FIGS. 7C and 7D show the results for the control group (saline treatment only) and the treatment group (8 mg sulfasalazine in 1 ml saline, twice per day).

Test [12] has as its system D54-MG glioma cells. In words: intracranial D54-MG luciferase xenograft, bioluminescence imaging. It is filed as in vivo, CB-17 scid mice. On the procedure:
Therefore, the effect of inhibiting system Xc in an animal model of malignant glioma was examined. In these experiments, both (S)-4-CPG or sulfasalazine were used. […] In the described in vivo experiments, human gliomas were xenografted into the cranium of either female CB-17 scid mice or nude mice, both of which are frequently used animal models for malignant gliomas. The intracranial growth of tumors was assessed using the recently developed […] methodology for visualizing tumor growth.
In one set of in vivo experiments, D54-MG glioma cells were stably transfected with the firefly luciferase gene under the control of the CMV promoter. One-half million cells were stereotactically implanted into the cranium of each CB-17 scid mouse. After 7 days, animals were randomized into three groups of 12 animals each. The control group received an intraperitoneal injection of 1 ml dose of saline twice daily. The two test groups received an 8 mg dose of sulfasalazine twice daily for either 1 or 3 weeks. Animals were imaged for tumor size, typically once per week, using a bioluminescence imaging system (IVIS system; Xenogen). Light emission from the tumor regions (in relative photons/second) were quantified using Living Image, version 2.20.1, software provided by Xenogen and plotted as a function of time.

Consider `O=C(O)c1cc(/N=N/c2ccc(S(=O)(=O)Nc3ccccn3)cc2)ccc1O` [sulfasalazine], for which the “glutathione levels in tumors” value in test [1] (control 100+/−5.6) was 71.7+/−7.5 fluorescence units. Moreover, the “decrease of glutathione levels in tumors” value in [1] (versus saline control) is given as “approximately 30%”. In addition, in test [2] (70 μM for 24 h), the “decrease in glutathione levels in cultured cells” value turned out to be 30%. For the same compound, the “maximal decrease in glutathione levels” value in [2] (250 μM, cultured U87-MG cells, data not shown) is given as 68%. In test [3], the “incorporation of BrdU, immunocytochemistry” value is “virtually abolished incorporation of BrdU”. Further, the “inhibition of cystine uptake in cortical astrocytes” value in [4] is given as “to a significantly lesser degree; also recorded: only a limited inhibition”. For the same compound, in test [5], the “survival/growth of cortical neuronal cultures” value is reported as “Neither (S)-4-CPG (FIG. 3C) nor sulfasalazine (data not shown) affected”. The “intracellular glutathione concentration in astrocytes” value in test [6] was “a smaller effect”. The “tumor growth by bioluminescence imaging” value in [7] was “reduce tumor growth significantly”. In test [8], the “cell cycle distribution (total DNA content)” value is “a reduction of cells in G2 phase and an increase in cells in S phase”. Besides, the cells died in test [9] is 90%. Besides, in test [10], the “activated form of caspase-3” value is reported as “increased the activated form of caspase-3”. Moreover, the “tumor size versus control group, H&E staining” value in [11] is on record as “significantly smaller”. For the same compound, in [12] (8 mg intraperitoneal twice daily for either 1 or 3 weeks, from day 7 (FIG. 7A)), the “tumor expansion (relative bioluminescence)” value is “significantly reduced”. In test [12] (retreated at day 53 for 3 days after termination of treatment (FIG. 7A)), the “tumor growth after retreatment” value was “again reduced after retreatment”.
